Experiment [1] relates to rat conjunctival goblet cells. The experiment in a line: Goblet cell proliferation, WST tetrazolium assay (Example 3A, Fluorescence Assay). The experiment is classed as cell-based. As to conditions: for goblet cell proliferation, Ave. fold / goblet cell proliferation, fold of basal, rat101 / goblet cell proliferation, fold of basal, rat102 / goblet cell proliferation, fold of basal, rat103: 24 hrs; for goblet cell proliferation, Ave. fold: average of 3 rats; for goblet cell proliferation, fold of basal, rat101: cells from rat101; for goblet cell proliferation, fold of basal, rat102: cells from rat102; for goblet cell proliferation, fold of basal, rat103: cells from rat103; for stimulation of goblet cell proliferation compared to control (no additions): 10^−7 M. An excerpt: Conjunctival tissue from the fomical area and the nictitating membranes were removed from male Sprague Dawley rats. Tissue pieces were placed in explant culture in RPMI supplemented with fetal bovine serum (FBS). […] Non-goblet cells, predominantly fibroblasts, were removed by scraping. Goblet cells were allowed to grow and proliferate for several days. Cells were removed from the tissue culture vessel by trypsin treatment. The number of cells was counted using a coulter counter. For measurement of proliferation 200 cells were seeded onto 96 well plates. Cells were allowed to attach and proliferate until a sparsely confluent level was obtained, about two days.
Goblet cells from passage 1 or 2 cultured as above were used for measurement of proliferation. Cells were plated at 200 cells/well. Cells were serum-starved for 24 or 48 hrs. Test compounds in varying concentrations were added to each cell well for 24 hrs. The positive control for proliferation was the addition of 10% FBS, a known maximal stimulator of proliferation. Proliferation was terminated by the removal of medium.

Experiment [2] concerns rat conjunctival goblet cells. Kind of experiment: Goblet cell proliferation, Ki-67/UEA-1/DAPi immunofluorescence assay (Example 3B). The experiment is classed as cell-based. The conditions noted are these: 24 hours; concentration most effective in the fluorescence assay (FBS 10%). The source says:
Conjunctival tissue from the fomical area and the nictitating membranes were removed from male Sprague Dawley rats. Tissue pieces were placed in explant culture in RPMI supplemented with fetal bovine serum (FBS). Over several days cells grew out of the explant and proliferated. Non-goblet cells, predominantly fibroblasts, were removed by scraping. Goblet cells were allowed to grow and proliferate for several days. Cells were removed from the tissue culture vessel by trypsin treatment. The number of cells was counted using a coulter counter. For measurement of proliferation 200 cells were seeded onto 96 well plates. […]
B. Immunofluorescence Assay This assay was used to confirm the results from the fluorescence assay. […]
Ki-67 was detected with a rhodamine secondary antibody using a filter that measures excitation wavelengths from 530-560 nm. UEA-1, which stains goblet cells, was directly conjugated to fluorescein isothyocyanate (FITC) and was detected using a filter that measures excitation wavelengths from 450-490 nm. DAPi, which stains the nuclei of all cells, was detected using a filter that measures excitation wavelengths from 400-418 nm. The percentage of proliferating goblet cells is determined by dividing the number of Ki-67 positive goblet cells by the total number of cells and multiplying by 100. […]

Take `CCCC(=O)O[C@@H]1[C@@H](C)[C@@]2(O)[C@@H](C=C(CO)C[C@]3(O)C(=O)C(C)=C[C@@H]23)[C@@H]2C(C)(C)[C@]12OC(=O)CCC` [phorbol dibutyrate β isoform, phorbol dibutyrate, reference compound]: the “effect on goblet cell proliferation” value is given as “Neither isoform increased proliferation except at high concentrations” in experiment [1] (concentrations not greater than 10^−7 M, solubilized in DMSO) and “both isoforms increased proliferation” in experiment [1] (high concentrations, greater than 10^−7 M, effect not mediated by PKC).

On to `CC(C)NCC(O)c1ccc(O)c(O)c1` (stereo not shown) [Isoproterenol, reference compound], for which the “effect on goblet cell proliferation” value in experiment [1] (10^−7 to 10^−3 M, likely due to interference with the assay) is “did not increase proliferation”.

For the molecule PDGF, the “increase in goblet cell proliferation compared to no additions” value in experiment [1] (5 to 25 ng/ml) amounted to 2 fold.

In the case of “Galectin-1: recombinant galectin, mono-CRD carbohydrate-binding protein, obtained from Cell Services, Massachusetts, 98% pure”, in experiment [1] (0.1 μg/ml to 5 μg/ml), the “dose dependence of effect on goblet cell proliferation” value was “appeared to be dose dependent” and the “effect on goblet cell proliferation” value is recorded as “both galectins stimulated goblet cell proliferation”. Besides, in experiment [1] (0.1 ug/ml), the “goblet cell proliferation, Ave. fold” value was found to be 1.0 fold; the “goblet cell proliferation, fold of basal, rat101” value came out at 1.1 fold; the “goblet cell proliferation, fold of basal, rat102” value was 1.0 fold; the “goblet cell proliferation, fold of basal, rat103” value is on record as 1.0 fold. Besides, in experiment [1] (0.5 ug/ml), the “goblet cell proliferation, Ave. fold” value amounted to 1.0 fold; the “goblet cell proliferation, fold of basal, rat101” value turned out to be 1.1 fold; the “goblet cell proliferation, fold of basal, rat102” value is 1.0 fold; the “goblet cell proliferation, fold of basal, rat103” value worked out at 1.0 fold. Further, in experiment [1] (1.0 ug/ml), the “goblet cell proliferation, Ave. fold” value is 1.0 fold; the “goblet cell proliferation, fold of basal, rat101” value was 1.1 fold; the “goblet cell proliferation, fold of basal, rat102” value was found to be 1.0 fold; the “goblet cell proliferation, fold of basal, rat103” value was determined as 1.0 fold. Moreover, in experiment [1] (2.0 ug/ml), the “goblet cell proliferation, Ave. fold” value was found to be 1.2 fold; the “goblet cell proliferation, fold of basal, rat101” value amounted to 1.5 fold; the “goblet cell proliferation, fold of basal, rat102” value amounted to 1.2 fold; the “goblet cell proliferation, fold of basal, rat103” value came out at 1.1 fold. In addition, in experiment [1] (5.0 ug/ml), the “goblet cell proliferation, Ave. fold” value is listed as 1.3 fold; the “goblet cell proliferation, fold of basal, rat101” value is given as 1.4 fold; the “goblet cell proliferation, fold of basal, rat102” value is listed as 1.4 fold; the “goblet cell proliferation, fold of basal, rat103” value was 1.2 fold.

On to `C[N+](C)(C)CCOC(N)=O` [Carbachol, reference compound], for which the “effect on goblet cell proliferation” value in experiment [1] (10^−6 to 10^−3 M) is reported as “did not increase cell proliferation at any concentration”.

In the case of “Galectin-3: recombinant galectin with single CRD domain and extended N-terminal region, obtained from Cell Services, Massachusetts, 98% pure”, in experiment [1] (0.1 μg/ml to 5 μg/ml), the “dose dependence of effect on goblet cell proliferation” value is listed as “appeared to be dose dependent” and the “effect on goblet cell proliferation” value is on record as “both galectins stimulated goblet cell proliferation”. In experiment [1] (0.1 ug/ml), the “goblet cell proliferation, Ave. fold” value was 1.0 fold; the “goblet cell proliferation, fold of basal, rat101” value came out at 1.0 fold; the “goblet cell proliferation, fold of basal, rat102” value is recorded as 0.9 fold; the “goblet cell proliferation, fold of basal, rat103” value was determined as 1.0 fold. Moreover, in experiment [1] (0.5 ug/ml), the “goblet cell proliferation, Ave. fold” value is given as 1.1 fold; the “goblet cell proliferation, fold of basal, rat101” value came out at 1.3 fold; the “goblet cell proliferation, fold of basal, rat102” value is 1.0 fold; the “goblet cell proliferation, fold of basal, rat103” value is 1.0 fold. Further, in experiment [1] (1.0 ug/ml), the “goblet cell proliferation, Ave. fold” value is 1.2 fold; the “goblet cell proliferation, fold of basal, rat101” value was 1.3 fold; the “goblet cell proliferation, fold of basal, rat102” value is listed as 1.1 fold; the “goblet cell proliferation, fold of basal, rat103” value was 1.0 fold. Besides, in experiment [1] (2.0 ug/ml), the “goblet cell proliferation, Ave. fold” value came to 1.3 fold; the “goblet cell proliferation, fold of basal, rat101” value came to 1.5 fold; the “goblet cell proliferation, fold of basal, rat102” value is recorded as 1.3 fold; the “goblet cell proliferation, fold of basal, rat103” value is on record as 1.1 fold. For the same molecule, in experiment [1] (5.0 ug/ml), the “goblet cell proliferation, Ave. fold” value amounted to 1.4 fold; the “goblet cell proliferation, fold of basal, rat101” value stood at 1.8 fold; the “goblet cell proliferation, fold of basal, rat102” value is recorded as 1.2 fold; the “goblet cell proliferation, fold of basal, rat103” value amounted to 1.1 fold.

For HGF: hepatocyte growth factor, the “effect on goblet cell proliferation” value in experiment [1] (15-40 ng/ml) is reported as “Neither hepatocyte growth factor (HGF, 15-40 ng/ml) nor keratinocyte growth factor (KGF, 10-30 ng/ml), at any of the concentrations used, stimulated cell proliferation”.

For “transforming growth factor (TGF)α: EGF family growth factor that activates ErbB-1 receptors”, the “stimulation of goblet cell proliferation compared to control (no additions)” value (“stimulation … compared to control (no additions)” below) in experiment [1] is given as “about two”.

`CCCCCCCCCCCCCC(=O)O[C@@H]1[C@@H](C)[C@@]2(O)[C@@H](C=C(CO)C[C@]3(O)C(=O)C(C)=C[C@@H]23)[C@@H]2C(C)(C)[C@]12OC(C)=O` [PMA, Phorbol myristic acid, reference compound]: the “effect on goblet cell proliferation” value in experiment [1] (10^−8M, solubilized in less than 1% DMSO, compared to no additions) is “did not stimulate cell proliferation”.

On to “bFGF: Basic fibroblast growth factor, also referred to as FGF-2”, for which, in experiment [1] (10-20 ng/ml, similar to PDGF (2-fold)), the “effect on goblet cell proliferation” value is on record as “had similar effects”. Also, the “proliferation (Ki-67 positive goblet cells as percentage of total cells)” value in experiment [2] worked out at 70%.

With `CCCC(=O)Nc1ncnc2c1ncn2[C@@H]1O[C@@H]2COP(=O)(O)O[C@H]2[C@H]1OC(=O)CCC` [butyryl cAMP, dibutyryl cAMP, reference compound], in experiment [1] (10^−6 to 10^−3 M), the “effect on goblet cell proliferation” value is “did not increase proliferation at the concentrations tested”.

Take “EGF: epidermal growth factor, activates ErbB-1 receptors”: in experiment [1], the “stimulation … compared to control (no additions)” value is “about two”. Besides, the “proliferation (Ki-67 positive goblet cells as percentage of total cells)” value in experiment [2] amounted to 40%.

Turning to `CC(C)Cn1c(=O)c2[nH]cnc2n(C)c1=O` [1-isobutyl-3methylxanthine, reference compound], in experiment [1] (10^−6 to 10^−3 M), the “effect on goblet cell proliferation” value is “did not increase proliferation at the concentrations tested”.

Regarding Heregulin, the “stimulation … compared to control (no additions)” value in experiment [1] is “more than 2 fold”.

B1: KGF: keratinocyte growth factor (protein, UniProt P21781 32-194, looked up)
Fibroblast growth factor 7: CNDMTPEQMATNVNCSSPERHTRSYDYMEGGDIRVRRLFCRTQWYLRIDKRGKVKGTQEMKNNYNIMEIRTVAVGIVAIKGVESEFYLAMNKEGKLYAKKECNEDCNFKELILENHYNTYASAKWTHNGGEMFVALNQKGIPVRGKKTKKEQKTAHFLPMAIT
In the case of B1, the “effect on goblet cell proliferation” value in experiment [1] (10-30 ng/ml) is “Neither hepatocyte growth factor (HGF, 15-40 ng/ml) nor keratinocyte growth factor (KGF, 10-30 ng/ml), at any of the concentrations used, stimulated cell proliferation”.

B2: HB-EGF: Heparin binding-EGF, binds to ErbB-1 and ErbB-3 receptors (protein, UniProt Q99075 63-148, looked up)
Heparin-binding EGF-like …: DLQEADLDLLRVTLSSKPQALATPNKEEHGKRKKKGKGLGKKRDPCLRKYKDFCIHGECKYVKELRAPSCICHPGYHGERCHGLSL
In the case of B2, the “stimulation … compared to control (no additions)” value in experiment [1] is reported as 2 fold.

For the origin of these results see US20070185014A1, “Methods and compositions for modulating conjunctival goblet cells” (The Schepens Eye Research Institute, Inc., priority 2006, published 2007).
